Results taken from patent US20250019373A1, “ARYL OR HETEROARYL DERIVATIVE, AND PHARMACEUTICAL COMPOSITION COMPRISING SAME AS ACTIVE INGREDIENT FOR PREVENTION OR TREATMENT OF KINASE-RELATED DISEASES” (VORONOI INC., priority 2021, published 2025).

biological target: T1, RIPK1 (Homo sapiens, UniProt Q13546); test: RIPK1 inhibitory activity, DiscoverX scanMAX kinase panel (% control); assay type: binding; conditions: drug concentration 1 μM in DMSO, <35% counted as active, read-out: control percentage (% control) RIPK1
T1 construct: purchased DiscoverX
T1 sequence (Q13546 1-671): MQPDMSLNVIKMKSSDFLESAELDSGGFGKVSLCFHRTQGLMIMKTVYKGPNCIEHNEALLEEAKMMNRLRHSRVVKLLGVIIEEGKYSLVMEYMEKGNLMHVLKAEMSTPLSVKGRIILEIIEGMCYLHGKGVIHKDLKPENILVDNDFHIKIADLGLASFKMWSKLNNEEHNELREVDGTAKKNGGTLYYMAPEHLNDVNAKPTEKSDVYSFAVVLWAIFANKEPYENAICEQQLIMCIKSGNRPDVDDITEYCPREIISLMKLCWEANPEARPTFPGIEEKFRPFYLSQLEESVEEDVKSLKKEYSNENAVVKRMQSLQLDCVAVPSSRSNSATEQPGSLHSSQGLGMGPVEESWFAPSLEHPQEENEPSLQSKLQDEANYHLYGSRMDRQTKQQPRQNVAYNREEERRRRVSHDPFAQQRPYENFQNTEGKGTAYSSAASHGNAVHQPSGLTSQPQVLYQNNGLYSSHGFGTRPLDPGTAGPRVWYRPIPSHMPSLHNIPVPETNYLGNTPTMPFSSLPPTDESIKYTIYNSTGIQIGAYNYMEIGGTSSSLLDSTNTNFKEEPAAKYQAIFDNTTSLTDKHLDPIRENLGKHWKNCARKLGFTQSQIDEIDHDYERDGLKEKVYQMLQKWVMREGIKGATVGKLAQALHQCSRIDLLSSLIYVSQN
Description: To evaluate the RIPK1 inhibitory activity of a compound according to the present invention, the following experiment was performed. Specifically, for Examples 3 and 30 selected from the compounds of Examples of the present invention, enzyme (kinase) selectivity was measured by DiscoverX, and the experiment was conducted using a panel for scanMAX™ kinase analysis. Here, the enzyme was treated with a drug having a concentration of 1 μM in DMSO, and a control percentage (% control) was determined in the same manner as Formula 1 below.
Here, the positive control refers to a compound showing a control percentage of 0%, and the negative control is DMSO showing a control percentage of 100%. In addition, in terms of the enzyme selectivity of the present invention, when the control percentage with respect to an enzyme is <35% (i.e., less than 35%), it was determined that the compound has activity against the corresponding enzyme.

| remaining binding at 1 µM [%] | Compound |
| --- | --- |
| 1 | COc1ncc(-c2ccc3nc(NC(C)=O)cn3n2)cc1NC(=O)N1OCC[C@H]1c1ccccc1 [Example 3, (S)-N-(5-(2-acetamidoimidazo[1,2-b]pyridazin-6-yl)-2-methoxypyridin-3-yl)-3-phenylisoxazolidine-2-carboxamide] |
| 0 | COc1ncc(-c2ccc3nc(N)nn3c2)cc1NC(=O)N1OCC[C@H]1c1ccccc1 [Example 30, (S)-N-(5-(2-amino-[1,2,4]triazolo[1,5-a]pyridin-6-yl)-2-methoxypyridin-3-yl)-3-phenylisoxazolidine-2-carboxamide] |

system: HT-29 cells; test: Cell necrosis inhibitory activity under necroptosis-inducing conditions (TNF-α, Z-VAD-FMK, LCL161) in HT-29 cells, Cell Titer-Glo; assay type: cell-based; conditions: Homo sapiens, 100 ng/mL TNF-α + 25 μM Z-VAD-FMK + Smac mimetic LCL161, 24 hours, cell viability
Summary of the method: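 HT-29 cells seeded 24 h, then necroptosis induced with 100 ng/mL TNF-α, 25 μM Z-VAD-FMK and 10 μM LCL161 for 10 min before compound (11 points, 3-fold, top 0.1 or 1 μM; 0.05% DMSO). After 24 h, viability by CellTiter-Glo luminescence relative to untreated controls gave EC50 (nM).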

| Compound | EC50 [nM] |
| --- | --- |
| COc1ncc(-c2ccc3nc(NC(C)=O)cn3n2)cc1NC(=O)N1OCC[C@H]1c1ccccc1 [Example 3, (S)-N-(5-(2-acetamidoimidazo[1,2-b]pyridazin-6-yl)-2-methoxypyridin-3-yl)-3-phenylisoxazolidine-2-carboxamide] | 0.6 |
| COc1ncc(-c2ccc3nc(N)nn3c2)cc1NC(=O)N1OCC[C@H]1c1ccccc1 [Example 30, (S)-N-(5-(2-amino-[1,2,4]triazolo[1,5-a]pyridin-6-yl)-2-methoxypyridin-3-yl)-3-phenylisoxazolidine-2-carboxamide] | 3.8 |
| Cc1ccc(-c2ccn3nc(N)cc3c2)cc1NC(=O)N1OCC[C@H]1c1ccccc1 [Example 126, (S)-N-(5-(2-aminopyrazolo[1,5-a]pyridin-5-yl)-2-methylphenyl)-3-phenylisoxazolidine-2-carboxamide] | 0.4 |
| COc1ncc(-c2csc3c(N)ncnc23)cc1NC(=O)N1OCC[C@H]1c1ccccc1 [Example 128, (S)-N-(5-(4-aminothieno[3,2-d]pyrimidine-7-yl)-2-methoxypyridin-3-yl)-3-phenylisoxazolidine-2-carboxamide] | 38.2 |
| COc1ncc(-c2cc(C(F)(F)F)c3c(N)ncnn23)cc1NC(=O)N1OCC[C@H]1c1ccccc1 [Example 129, (S)-N-(5-(4-amino-5-(trifluoromethyl)pyrrolo[2,1-f][1,2,4]triazin-7-yl)-2-methoxypyridin-3-yl)-3-phenylisoxazolidine-2-carboxamide] | 3.6 |
| Cc1ccc(-c2cc3scnc3cn2)cc1NC(=O)N1OCC[C@H]1c1ccccc1 [Example 130, (S)-N-(2-methyl-5-(thiazolo[4,5-c]pyridin-6-yl)phenyl)-3-phenylisoxazolidine-2-carboxamide] | 1.4 |
| Cc1ccc(-c2ccc3ncsc3n2)cc1NC(=O)N1OCC[C@H]1c1ccccc1 [Example 131, (S)-N-(2-methyl-5-(thiazolo[5,4-b]pyridin-5-yl)phenyl)-3-phenylisoxazolidine-2-carboxamide] | 4 |
| Nc1nc2ccc(-c3ccc(F)c(NC(=O)N4OCC[C@H]4c4ccccc4)c3F)cc2s1 [Example 132, (S)-N-(3-(2-aminobenzo[d]thiazol-6-yl)-2,6-difluorophenyl)-3-phenylisoxazolidine-2-carboxamide] | 8.1 |
| Cc1ccc(-c2cc3c(cn2)ncn3C)cc1NC(=O)N1OCC[C@H]1c1ccccc1 [Example 133, (S)-N-(2-methyl-5-(1-methyl-1H-imidazo[4,5-c]pyridin-6-yl)phenyl)-3-phenylisoxazolidine-2-carboxamide] | 6.5 |
| Nc1nc2cc(-c3ccc(F)c(NC(=O)N4OCC[C@H]4c4ccccc4)c3F)ccn2n1 [Example 134, (S)-N-(3-(2-amino-[1,2,4]triazolo[1,5-a]pyridin-7-yl)-2,6-difluorophenyl)-3-phenylisoxazolidine-2-carboxamide] | 13 |
| Cc1ccc(-c2ccc3nc(N)c(C(=O)[C@@H]4C[C@@H]4F)n3c2)cc1NC(=O)N1OCC[C@H]1c1ccccc1 [Example 135, (S)-N-(5-(2-amino-3-((1S,2S)-2-fluorocyclopropane-1-carbonyl)imidazo[1,2-a]pyridin-6-yl)-2-methylphenyl)-3-phenylisoxazolidine-2-carboxamide] | 0.2 |
| Cc1ccc(-c2ccn3nc(N)cc3c2)cc1NC(=O)N1CCOC[C@H]1c1ccccc1 [Example 136, (R)-N-(5-(2-aminopyrazolo[1,5-a]pyridin-5-yl)-2-methylphenyl)-3-phenylmorpholine-4-carboxamide] | 5.4 |
| Cc1ccc(-c2ccn3nc(N)cc3c2)cc1NC(=O)N1CCO[C@@H](c2ccccc2)C1 [Example 137, (S)-N-(5-(2-aminopyrazolo[1,5-a]pyridin-5-yl)-2-methylphenyl)-2-phenylmorpholine-4-carboxamide] | 49.2 |
| Cc1ccc(-c2ccn3nc(N)cc3c2)cc1NC(=O)N1Oc2ccccc2[C@H]1c1ccccc1 [Example 139, (R)-N-(5-(2-aminopyrazolo[1,5-a]pyridin-5-yl)-2-methylphenyl)-3-phenylbenzo[d]isoxazole-2(3H)-carboxamide] | 2.2 |
| Cc1ccc(-c2ccn3nc(N)cc3c2)cc1NC(=O)N1OCC2(CC2)[C@H]1c1ccccc1 [Example 140, (R)-N-(5-(2-aminopyrazolo[1,5-a]pyridin-5-yl)-2-methylphenyl)-7-phenyl-5-oxa-6-azaspiro[2.4]heptane-6-carboxamide] | 1.7 |
| Cc1ccc(-c2ccc3ncn(C)c3n2)cc1NC(=O)N1OCC[C@H]1c1ccccc1 [Example 143, (S)-N-(2-methyl-5-(3-methyl-3H-imidazo[4,5-b]pyridin-5-yl)phenyl)-3-phenylisoxazolidine-2-carboxamide] | 5 |
